Results published in patent US20170210751A1, “PRMT5 INHIBITORS AND USES THEREOF” (Epizyme, Inc., priority 2014, published 2017).

How the values were obtained:
[1] = test system: Symmetric di-Methyl Arginine in Z-138 cells; experiment: Z-138 Methylation Assay (In Cell Western for symmetric di-methyl arginine); type: cell-based; conditions: Homo sapiens, 96 hours incubation, symmetric di-methyl arginine normalised to DNA content, read-out: ICW EC50
How it was run: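 Z-138 cells were treated with compound for 96 h at 37 °C, then fixed on poly-D-lysine plates. Symmetric di-methyl arginine was detected by In-Cell Western (800 nm) with DRAQ5 DNA normalisation (700 nm). Percent inhibition used DMSO and 3 μM reference-compound controls; IC50 curves came from triplicate wells.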

Z-138 cell line = experiment: Z-138 Proliferation Assay (Cell Titer Glo); type: cell-based; conditions: Homo sapiens, 120 h; Z-138 cells, 5 days incubation, ATP (Cell Titer Glo)
How it was run: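 Z-138 cells in RPMI with 10% FBS exposed 5 days at 37 °C to nine-point 3-fold dilutions, top 20 μM final, 0.2% DMSO, triplicate. ATP-based CellTiter-Glo luminescence; IC50 from 4-parameter fit of normalized curves.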

## O=C(COc1cccc2cccnc12)NCC(O)CN1CCc2ccsc2C1 (stereo not drawn) [Compound 1-5, N-(2-hydroxy-3-{4H,5H,6H,7H-thieno[2,3-c]pyridin-6-yl}propyl)-2-(quinolin-8-yloxy)acetamide]
[1]
  EC50: 0.101 to 1 µM
Z-138 cell line
  EC50: > 5 µM

## CC(=O)N1CC(Nc2cc(C(=O)NC[C@H](O)CN3CCc4c(cnn4C)C3)ncn2)C1 [Compound 3-29]
[1]
  EC50: > 1 µM
Z-138 cell line
  EC50: > 5 µM

## CC(=O)N1CCC(Nc2cc(C(=O)NC[C@H](O)CN3CCc4ncn(C)c4C3)ncn2)CC1 [Compound 3-30, (S)-6-((1-acetylpiperidin-4-yl)amino)-N-(2-hydroxy-3-(3-methyl-6,7-dihydro-3H-imidazo[4,5-c]pyridin-5(4H)-yl)propyl)pyrimidine-4-carboxamide]
[1]
  EC50: > 1 µM
Z-138 cell line
  EC50: > 5 µM
